Test results reported in ChEMBL document CHEMBL1201862, “PubChem BioAssay data set” (2004).
Active and inactive are the calls of the source. Cut-off read from the data, not from the text of the source, for most assays here: actives have a measured EC50 and inactives only a lower limit.

What was measured:
Streptococcus = assay: Group A Streptococcus viability loss, dose response, counter-screen for streptokinase expression inhibitor project, luminescence, BacTiterGlo (AID 1915); format: functional, organism-based;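 note: potency for reduction of bacterial viability or growth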
[1] = Luminescence Cell-Based Dose Response HTS to Identify Inhibitors of 5'UTR Stem-Loop Driven Prion Protein mRNA Translation in H4 Neuroglioblastoma Cells. [Related pubchem assays: 1827 (Project Summary), 1813 (Primary HTS)]; format: functional
[2] = inhibitors of firefly luciferase expression or activity, dose response, H4 neuroglioma cells, luminescence (AID 1990); format: functional, cell-based
[3] = system: Streptococcus sp. 'group A'; assay: growth inhibition of control SK(-) GAS strain, dose response, counter-screen for streptokinase expression inhibitor project, luminescence, kanamycin, BacTiterGlo, confirmation (AID 1900); format: functional, organism-based
[4] = inhibitors of SNCA 5'UTR-driven reporter translation, confirmation, H4 neuroglioma cells, luminescence (AID 1988); format: functional, cell-based
Streptokinase A = molecular target: T1, Streptokinase A (Streptococcus pyogenes serotype M1, UniProt P10520); assay: S. pyogenes streptokinase expression inhibitors, potency, dose response, plasminogen activation absorbance, OD405 (AID 1914); format: functional, Streptococcus pyogenes M1 GAS;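 note: secreted streptokinase activity via plasminogen activation per viability signal from cell pellet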
T1 sequence (P10520 whole entry): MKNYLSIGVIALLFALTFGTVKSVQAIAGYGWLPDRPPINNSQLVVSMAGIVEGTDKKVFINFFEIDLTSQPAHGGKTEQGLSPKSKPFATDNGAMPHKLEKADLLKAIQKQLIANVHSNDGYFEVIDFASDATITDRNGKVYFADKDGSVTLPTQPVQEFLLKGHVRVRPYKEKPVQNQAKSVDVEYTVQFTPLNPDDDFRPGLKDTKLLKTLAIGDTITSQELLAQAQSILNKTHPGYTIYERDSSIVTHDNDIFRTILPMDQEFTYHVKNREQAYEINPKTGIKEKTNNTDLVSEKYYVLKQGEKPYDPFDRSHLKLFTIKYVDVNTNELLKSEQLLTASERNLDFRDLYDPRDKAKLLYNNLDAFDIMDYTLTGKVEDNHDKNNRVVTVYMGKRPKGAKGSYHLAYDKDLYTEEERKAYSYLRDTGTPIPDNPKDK

cells = format: functional
H9c2 = assay: cells; format: functional, cell-based; conditions: Rattus norvegicus, H9c2, Myocardium
[5] = molecular target: T2, Heat shock factor protein 1 (Mus musculus, UniProt P38532); assay: inhibition of MG132-induced HSE-luciferase signal, confirmation, cell-based, NIH3T3, luminescence, dose retest (AID 2382); format: functional;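 note: NIH3T3 fibroblasts with HSF1-driven luciferase reporter stressed by proteasome inhibitor MG132; luminescence from HSF1-driven luciferase expression after 8 hours of MG132 stress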
T2 sequence (P38532 whole entry): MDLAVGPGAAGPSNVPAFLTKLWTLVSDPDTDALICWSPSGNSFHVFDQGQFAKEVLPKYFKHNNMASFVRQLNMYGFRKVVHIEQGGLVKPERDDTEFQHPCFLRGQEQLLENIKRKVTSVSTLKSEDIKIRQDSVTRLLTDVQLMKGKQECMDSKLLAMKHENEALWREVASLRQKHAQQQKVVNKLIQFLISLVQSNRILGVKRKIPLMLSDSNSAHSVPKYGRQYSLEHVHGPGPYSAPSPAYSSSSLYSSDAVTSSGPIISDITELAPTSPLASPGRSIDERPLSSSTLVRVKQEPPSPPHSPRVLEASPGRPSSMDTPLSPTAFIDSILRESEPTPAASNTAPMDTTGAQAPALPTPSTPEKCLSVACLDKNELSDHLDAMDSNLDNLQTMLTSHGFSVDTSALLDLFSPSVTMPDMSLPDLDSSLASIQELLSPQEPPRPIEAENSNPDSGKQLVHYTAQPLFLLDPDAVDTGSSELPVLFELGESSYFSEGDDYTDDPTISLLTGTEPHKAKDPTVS

H4 = assay: Luminescence Cell-Based Dose Response HTS to Identify Activators of 5'UTR Stem-Loop Driven Prion Protein mRNA Translation in H4 Neuroglioblastoma Cells. [Related pubchem assays: 1829 (Project Summary), 1814 (Primary HTS)]; format: functional; conditions: Homo sapiens
[6] = Luminescence Cell-Based Dose Response HTS to Identify Activators of Luciferase Translation or Activity in H4 […] Cells. [Related pubchem assays: 1829 (Project Summary), 1814 (Primary HTS)]; format: functional
Paired box protein Pax-8 = Paired box protein Pax-8 (Homo sapiens, UniProt Q06710); assay: inhibitors of PAX8-driven TPO luciferase reporter, dose response, RMG-I cells, cherry-pick (AID 687027); format: functional, cell-based;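 note: luciferase reporter driven by Pax8 target thyroperoxidase promoter measured by SteadyGlo luminescence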
[7] = Luminescence Cell-Based Dose Confirmation HTS to Identify Inhibitors of Platelet Dense Granule Release. [Related pubchem assays: 1663 (Primary HTS), 1678 (Summary of Project)]; format: functional
[8] = molecular target: Luciferin 4-monooxygenase (Photinus pyralis, UniProt P08659); assay: firefly luciferase enzyme inhibitors, dose response, biochemical, luminescence (AID 1891)
[9] = molecular target: T2, Heat shock factor protein 1; assay: HSF1 potentiators in luciferase reporter cells, confirmation, cell-based, NIH3T3, luminescence, dose retest (AID 435004); format: functional;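 note: stress induced by proteasome inhibitor MG132 added 30 min after compound; luciferase reporter driven by HSF1 response element in NIH3T3 cells; actives raise luminescence as potentiators of the MG132 stress response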
Cytochrome P450 3A4 = Cytochrome P450 3A4 (Homo sapiens, UniProt P08684);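 note: CYP3A4 tested as one member of a cytochrome P450 panel screen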
[10] = inhibitors of intracellular T. cruzi replication, confirmation, NIH3T3 host cells, beta-gal luminescence (AID 2044); format: functional, cell-based;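 note: intracellular parasites grown in NIH/3T3 mouse fibroblasts as host cells; luminescent beta-galactosidase reporter signal from transgenic T. cruzi replicating inside host cells; inhibitors lower the luminescence signal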
[11] = cytotoxicity toward NIH3T3 fibroblasts, dose response, counter-screen, cell-based, ATP luminescence, mouse fibroblasts (AID 2010); format: functional;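 note: cells exposed to compound for about 90 hours before reading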
[12] = Luminescence Cell-Based Dose Retest to Confirm Inhibitors of Cancer Stem Cells. [Related pubchem assays (depositor defined):AID2717, AID2721]; format: functional, Homo sapiens; conditions: Homo sapiens
INS1 = assay: beta cell apoptosis inhibitors, cytokine rescue, dose response, luminescence, retest (AID 449756); format: functional, cell-based; conditions: Rattus norvegicus;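 note: cell death triggered by IL-1 beta plus TNF-alpha plus IFN-gamma mixture; protective hits raise ATP signal compared with cytokine alone wells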

Chain of Paired box protein Pax-8 (Q06710 whole entry): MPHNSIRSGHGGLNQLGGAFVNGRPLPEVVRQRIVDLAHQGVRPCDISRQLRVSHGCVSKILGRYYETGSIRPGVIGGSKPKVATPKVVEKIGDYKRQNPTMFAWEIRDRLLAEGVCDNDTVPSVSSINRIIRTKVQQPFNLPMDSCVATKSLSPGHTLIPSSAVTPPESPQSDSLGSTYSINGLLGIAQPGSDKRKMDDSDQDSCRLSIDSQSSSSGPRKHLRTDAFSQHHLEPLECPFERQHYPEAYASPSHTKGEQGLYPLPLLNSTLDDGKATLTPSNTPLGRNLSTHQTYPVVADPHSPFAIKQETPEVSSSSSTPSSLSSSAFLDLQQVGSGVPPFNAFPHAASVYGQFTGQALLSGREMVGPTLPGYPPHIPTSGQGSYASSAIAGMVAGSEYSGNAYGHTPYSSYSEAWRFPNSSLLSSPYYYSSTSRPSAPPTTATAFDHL
Chain of Luciferin 4-monooxygenase (P08659 whole entry): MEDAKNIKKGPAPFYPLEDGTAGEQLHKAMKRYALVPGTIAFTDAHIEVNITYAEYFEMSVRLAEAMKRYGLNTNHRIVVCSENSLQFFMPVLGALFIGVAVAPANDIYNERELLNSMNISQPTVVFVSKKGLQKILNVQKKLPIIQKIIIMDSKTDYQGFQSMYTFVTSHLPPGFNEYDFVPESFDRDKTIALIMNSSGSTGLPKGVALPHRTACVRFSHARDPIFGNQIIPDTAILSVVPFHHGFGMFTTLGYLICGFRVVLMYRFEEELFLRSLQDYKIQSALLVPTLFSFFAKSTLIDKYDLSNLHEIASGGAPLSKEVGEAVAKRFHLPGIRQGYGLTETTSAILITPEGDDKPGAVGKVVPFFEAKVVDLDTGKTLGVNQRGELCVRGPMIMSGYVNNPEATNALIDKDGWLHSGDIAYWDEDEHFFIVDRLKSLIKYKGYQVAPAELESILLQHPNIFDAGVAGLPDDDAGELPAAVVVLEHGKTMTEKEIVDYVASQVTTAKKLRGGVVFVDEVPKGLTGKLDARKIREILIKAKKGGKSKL
Chain of Cytochrome P450 3A4 (P08684 whole entry): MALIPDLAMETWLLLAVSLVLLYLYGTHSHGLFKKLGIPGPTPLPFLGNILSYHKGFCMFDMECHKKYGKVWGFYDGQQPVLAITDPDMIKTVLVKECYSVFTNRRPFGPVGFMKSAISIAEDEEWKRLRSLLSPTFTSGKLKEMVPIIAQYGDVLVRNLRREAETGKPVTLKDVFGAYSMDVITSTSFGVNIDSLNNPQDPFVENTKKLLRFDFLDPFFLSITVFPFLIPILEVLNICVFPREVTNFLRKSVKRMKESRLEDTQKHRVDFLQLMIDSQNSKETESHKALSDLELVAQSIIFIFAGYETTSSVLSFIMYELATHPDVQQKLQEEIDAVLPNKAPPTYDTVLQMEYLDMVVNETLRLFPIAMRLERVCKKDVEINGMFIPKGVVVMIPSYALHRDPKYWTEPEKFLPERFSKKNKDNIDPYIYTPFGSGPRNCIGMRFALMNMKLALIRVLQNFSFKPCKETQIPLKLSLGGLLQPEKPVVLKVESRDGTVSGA

## Sc1nnc(C2CCCCC2)n1/N=C/c1cccc(Cl)c1Cl
Streptococcus
  EC50: 7.5 µM (active)
[1]
  EC50: > 120 µM (not active)
[2]
  EC50: 15.2 µM (active)
[3]
  EC50: 4.7 µM (active)
[4]
  EC50: 15.1 µM (active)
Streptokinase A
  EC50: > 150 µM (not active)

## O=C(OCC(=O)N1CCc2ccccc21)c1ccc([N+](=O)[O-])cc1
cells
  IC50: 7.65 µM (active)

## Cc1ccc(OCC(=O)Nc2nc(-c3ccccn3)cs2)c(C)c1
Streptococcus
  EC50: 4.62 µM (active)
[3]
  EC50: 1.08 µM (active)
H9c2
  IC50: > 79 µM (inactive)

## CCOc1ccc(S(=O)(=O)N2CCC(C(=O)N3CCOCC3)CC2)cc1C
[1]
  EC50: > 120 µM (not active)
[2]
  EC50: 16.4 µM (active)
[4]
  EC50: > 120 µM (not active)

## O=C(O)C1CCCCC1C(=O)Nc1cccc(C(=O)N2CCCCC2)c1 (stereo unspecified)
[5]
  EC50: > 195 µM (not active)

## N#C/C(=C/c1ccc(Br)o1)C(N)=O
[5]
  EC50: > 195 µM (not active)

## CC1CN(C(=O)C(C)N2C(=O)c3ccccc3C2=O)CC(C)O1 (stereo unspecified)
[5]
  EC50: 33.4 µM (active)

## CC(=O)Oc1ccc(C)cc1-n1nc2ccccc2n1
H4
  EC50: 2.63 µM (active)
[6]
  EC50: 0.445 µM (active)

## COc1ccc(OCC(O)Cn2c(Nc3cccc(C)c3)nc3c2c(=O)n(C)c(=O)n3C)cc1 (stereo unspecified)
H9c2
  IC50: 10.1 µM (active)

## C[C@@H]1CCCCO[C@H](CN(C)CC2CCCCC2)[C@H](C)CN([C@H](C)CO)C(=O)c2cc(NS(=O)(=O)c3ccc(Cl)cc3)ccc2O1
Paired box protein Pax-8
  AC50: 5.21 µM (active)

## COC(=O)c1ccccc1NC(=O)/C=C/c1cc(OC)c(OC)c(OC)c1
H9c2
  IC50: 10.5 µM (active)

## O=C(COC(=O)CCc1nc(O)c2ccccc2n1)NC(c1ccccc1)c1ccccc1
H9c2
  IC50: > 79 µM (inactive)

## COc1cccc(NC(=O)c2cc3ccccc3oc2=O)c1
cells
  IC50: 34.4 µM (active)

## CCN(CC)C(=O)c1[nH]cnc1C(=O)NCC(=O)OCc1ccccc1
H9c2
  IC50: 6.99 µM (active)

## CC(C)(C)c1ccc(/C=N/N2C(=O)CSC2=S)cc1
[5]
  EC50: 44.1 µM (active)

## COc1ccccc1NC(=O)N(Cc1ccco1)Cc1cc2ccc(C)c(C)c2nc1O
[7]
  EC50: > 112 µM (not active)
[1]
  EC50: 27.6 µM (active)
[2]
  EC50: > 60 µM (not active)
[8]
  EC50: > 112 µM (not active)
[4]
  EC50: 11 µM (active)
[9]
  EC50: > 260 µM (inactive)

## CS(=O)(=O)c1nc(-c2ccccc2)cc(-c2ccccc2)c1C#N
Cytochrome P450 3A4
  AC50: 22.4 µM (inconclusive)
[9]
  EC50: 16.7 µM (active)

## COc1ccc(-c2cc(C(F)(F)F)n3nc(C(=O)N4CCN(C(=O)c5ccco5)CC4)cc3n2)cc1
H9c2
  IC50: 13 µM (active)

## O=C(COC(=O)c1cccs1)c1ccc2c(c1)OCCO2
[6]
  EC50: < 0.1 µM (active)
[5]
  EC50: 0.213 µM (active)

## CCc1ccccc1N(CC(=O)NCc1ccco1)C(=O)CCC(=O)Nc1ccccn1
[5]
  EC50: 35.8 µM (active)

## CN(CC(=O)Nc1cccc(F)c1)C(=O)CCc1nc(O)c2ccccc2n1
H9c2
  IC50: > 79 µM (inactive)

## CC(=O)NCc1ccc(-c2csc(NC(=O)CCc3nc(O)c4ccccc4n3)n2)s1
H9c2
  IC50: > 79 µM (inactive)

## CCOc1ccc(S(=O)(=O)c2c(C(=O)c3ccccc3)cnc3cc4c(cc23)OCCO4)cc1
[10]
  EC50: 2.43 µM (active)
[9]
  EC50: > 260 µM (inactive)
[11]
  EC50: 17.8 µM (active)

## COc1cc2c(cc1OC)CN(C(=O)CNS(=O)(=O)c1ccc(C)c(C)c1)CC2
[1]
  EC50: > 120 µM (not active)
[2]
  EC50: > 120 µM (not active)
[4]
  EC50: > 120 µM (not active)

## CC(C)(C)OC(=O)C[C@@H]1C/C=C\C[C@@H](CC(=O)N[C@@H](CO)Cc2ccccc2)C(=O)NC[C@@H](c2ccccc2)OC1=O
H9c2
  IC50: 11.1 µM (active)

## COc1cccc(CC2(CO)CCN(S(=O)(=O)c3ccc(OC)cc3OC)CC2)c1
[5]
  EC50: > 195 µM (not active)

## Cc1ccc(NC(=O)c2[nH]cnc2C(=O)NCCCCCCNC(=O)c2nc[nH]c2C(=O)Nc2ccc(C)cc2)cc1
H9c2
  IC50: > 79 µM (inactive)

## O=C(CN1CCN(c2ccccn2)CC1)Nc1ccc([N+](=O)[O-])cc1C(=O)Nc1ccccc1F
H9c2
  IC50: > 79 µM (inactive)

## O=C(Nc1cnn(Cc2ccc(F)cc2)c1)c1cc(-c2ccco2)on1
[5]
  EC50: > 195 µM (not active)

## COc1ccc(/C=N/NC(=O)c2ccncc2)cc1COc1ccc(NC(C)=O)cc1
[1]
  EC50: > 120 µM (not active)
[2]
  EC50: > 120 µM (not active)
[4]
  EC50: > 120 µM (not active)

## COCCOC(=O)c1c(C)oc2ccc(OC(=O)c3ccco3)cc12
cells
  IC50: > 50 µM (active)

## Cc1ccc(NC(=O)CN(C)C(S)=NC2CC2)cc1
[1]
  EC50: > 120 µM (not active)
[2]
  EC50: > 120 µM (not active)
[4]
  EC50: > 120 µM (not active)

## COc1ccc(Nc2nc(C(=O)N3CCc4cc(OC)c(OC)cc4C3)cs2)cc1
H9c2
  IC50: > 79 µM (inactive)

## CCCCNC(=O)c1ccc(Cn2c(=S)[nH]c3c([nH]c4ccc(OC)cc43)c2=O)cc1
[12]
  AC50: 0.687 µM (active)
INS1
  AC50: 5.01 µM (active)
[5]
  EC50: 3.02 µM (active)

## COc1cc2c3c(c1OC)C1(C=CC(=NO)C=C1)CC3N(C(C)=O)CC2 (stereo unspecified)
[1]
  EC50: > 120 µM (not active)
[2]
  EC50: > 120 µM (not active)
[4]
  EC50: > 120 µM (not active)

## CC(C)(C)OC(=O)C[C@H]1C/C=C\C[C@H](CC(=O)N[C@H](CO)Cc2ccccc2)C(=O)N[C@H](Cc2ccccc2)COC1=O
H9c2
  IC50: > 79 µM (inactive)

## O=C(Cn1[nH]c(=O)c2ccccc2c1=O)N1CC=C(c2ccccc2)CC1
H9c2
  IC50: > 79 µM (inactive)

## Cc1ccc(C)c(OCCn2cc(/C=C(\C#N)C(=O)NCc3ccco3)c3ccccc32)c1
[1]
  EC50: 17.1 µM (active)
[2]
  EC50: > 120 µM (not active)
[4]
  EC50: 25.1 µM (active)

## Cn1c(C[S+]([O-])Cc2c(Cl)cccc2Cl)nnc1SCc1ccc(Cl)cc1 (stereo unspecified)
[1]
  EC50: > 120 µM (not active)
[2]
  EC50: > 120 µM (not active)
[4]
  EC50: 13.8 µM (active)

## CC(C)OCCCNC(=O)c1cccc(NC(=O)c2ccccc2)c1
Paired box protein Pax-8
  AC50: 41.6 µM (active)

## c1ccc(N2CCOCC2)c(Nc2nc3ccccc3n3cnnc23)c1
H9c2
  IC50: > 79 µM (inactive)

## CC(=O)c1ccc(OCC(O)CN2CCN(Cc3ccc4c(c3)OCO4)CC2)cc1 (stereo unspecified)
[5]
  EC50: > 195 µM (not active)

## O=C(c1ccco1)N1N=C(c2ccc(Br)cc2)CC1(O)C(F)(F)F (stereo unspecified)
Paired box protein Pax-8
  AC50: 27.1 µM (active)

## O=C(Nc1ccc2c(c1)nc(O)c1ccccc12)C(F)(F)F
H9c2
  IC50: > 79 µM (inactive)

## CSCCC(c1nnnn1-c1ccc2c(c1)OCCO2)N1CCC(n2c(O)nc3ccccc32)CC1 (stereo unspecified)
Paired box protein Pax-8
  AC50: 2.14 µM (active)

## O=C(Nc1nnc(-c2ccc(Cl)cc2)o1)C1=COCCO1
cells
  IC50: 4.83 µM (active)

## Cc1cccc(-[n+]2c(C)cc(C)c3c(=O)[nH]c(=O)[nH]c32)c1
[9]
  EC50: > 260 µM (inactive)

## Cc1ccccc1NC(S)=NNC(=O)c1csc2c1CCC(C)C2 (stereo unspecified)
[5]
  EC50: < 0.16 µM (active)
